Here are results for nine molecules from ChEMBL document CHEMBL1201862, “PubChem BioAssay data set” (2004).

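How tested: cells in 96-well plates exposed to compound for 48 hours at five concentrations. Abbreviation: GI50, concentration required for 50% inhibition of growth.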 The source made the active and inactive calls. No stated cut-off is given here; in the data, active = GI50 up to about 1.1 µM and inactive = higher. Peptide text beside a SMILES is read from it. * marks the point of attachment. X27 = Clc1c(Cl)c(Cl)c(O*)c(Cl)c1Cl; Boc = CC(C)(C)OC(=O)*; OBn = c1ccc(CO*)cc1; Bn = c1ccc(C*)cc1

Holding throughout (assay): NCI tumour cell line growth inhibition, 48 h
Assay [1] has as its system COLO 205.
The test system of assay [2] is DU-145.
Assay [3] relates to HCC 2998.
The subject of assay [4] is HOP-92.
Assay [5] has as its system KM12.
For assay [6], the system named is LOX IMVI.
The subject of assay [7] is M14.
Assay [8] relates to MDA-MB-435.
Assay [9] deals with MDA-N.
Assay [10] deals with PC-3.
In assay [11] the test system is SF-268.
Assay [12] has as its system SF-539.
The test system of assay [13] is SK-MEL-2.
Assay [14] has as its system SK-MEL-5.
Assay [15] has as its system SK-OV-3.
Assay [16] deals with SW-620.
The subject of assay [17] is UO-31.
Assay [18] concerns NCI/ADR-RES.
For assay [19], the system named is T47D.

Consider `COc1ccc(NC2Oc3cc4c(cc3C(c3cc(OC)c(OC)c(OC)c3)C2C)OCO4)cc1` (stereo not drawn), for which the GI50 is 0.386 µM (active) in assay [1]; 0.574 µM (active) in [2]; 0.738 µM (active) in assay [3]; 0.92 µM (active) in [4]; 0.381 µM (active) in assay [5]; 0.476 µM (active) in assay [6]. Further, the GI50 in assay [7] is 0.294 µM (active); in [8] it was 0.0991 µM (active); in assay [9] it was 0.0811 µM (active); in assay [10] it was 0.586 µM (active); in [11], 0.959 µM (active); in [12], 0.222 µM (active). For the same molecule, the GI50 in assay [13] was 0.538 µM (active); in assay [14], 0.33 µM (active); in [15] it was 0.948 µM (active); in assay [16], 0.428 µM (active); in assay [17], 0.891 µM (active).

With `O=C(N/N=C\c1cccs1)c1ccncc1`, the GI50 in assay [1], in assay [3], in assay [4], in assay [5], in [7] and in [8] was > 100 µM (inactive) in each case. For the same molecule, the GI50 in assay [18], in assay [10], in assay [11], in assay [12], in assay [13] and in assay [14] was > 100 µM (inactive) in each case. The GI50 in assay [15], in [16], in [19] and in assay [17] was > 100 µM (inactive) throughout.

Consider `COc1ccc(C2C3=C(CCCC3=O)N(c3ccccc3)C3=C2C(=O)CCC3)cc1`, for which the GI50 in assay [4] was 29 µM (inactive); in assay [5], > 100 µM (inactive); in assay [6], > 100 µM (inactive); in assay [7], > 100 µM (inactive); in assay [18], > 100 µM (inactive); in [10], > 100 µM (inactive). Further, the GI50 in [11] was 79.4 µM (inactive); in assay [12] it was > 100 µM (inactive); in assay [14] it was > 10 µM (inactive); in assay [15], 50.6 µM (inactive); in assay [16], > 100 µM (inactive); in [17] it was > 100 µM (inactive).

For the molecule `Cc1ccsc1/C=N/Nc1cnccn1`, the GI50 is > 100 µM (inactive) in [1]; > 100 µM (inactive) in assay [2]; > 100 µM (inactive) in [3]; > 100 µM (inactive) in [4]; 99.5 µM (inactive) in [5]; 76.4 µM (inactive) in [6]. Also, the GI50 in [7], in assay [8], in [18], in assay [10], in assay [11] and in assay [13] was > 100 µM (inactive) each time. Besides, the GI50 in assay [14], in assay [15], in assay [16], in [19] and in assay [17] was > 100 µM (inactive) throughout.

For `COC(=O)c1nc(-c2nc(CCNC(=O)OC(C)(C)C)sc2Cl)sc1Cl`, the GI50 is 98.4 µM (inactive) in assay [1]; > 100 µM (inactive) in assay [2]; > 100 µM (inactive) in assay [3]; 6.62 µM (inactive) in [4]; 55.3 µM (inactive) in assay [5]; 32.1 µM (inactive) in [7]. Moreover, the GI50 is 92 µM (inactive) in assay [8]; 49.9 µM (inactive) in assay [9]; 32.2 µM (inactive) in assay [18]; 28.1 µM (inactive) in assay [10]; 74.6 µM (inactive) in assay [11]; > 100 µM (inactive) in assay [12]. Also, the GI50 was 31.8 µM (inactive) in [14], > 100 µM (inactive) in [15], > 100 µM (inactive) in assay [16] and 89.7 µM (inactive) in assay [17].

For the molecule `O=C1CCCC1CC(CN1CCOCC1)Sc1nnnn1-c1ccccc1` (stereo not drawn), the GI50 in assay [1] was 16.6 µM (inactive); in assay [2] it was 77.4 µM (inactive); in [3] it was > 100 µM (inactive); in [4], > 100 µM (inactive); in assay [5] it was > 100 µM (inactive); in assay [6], > 100 µM (inactive). In addition, the GI50 in assay [7], in assay [8], in assay [9], in assay [18], in assay [10] and in assay [12] was > 100 µM (inactive) in each case. Moreover, the GI50 is > 100 µM (inactive) in [13]; > 100 µM (inactive) in assay [14]; > 100 µM (inactive) in [15]; > 100 µM (inactive) in assay [16]; 96.8 µM (inactive) in assay [17].

Regarding `CCOc1ccc(N/C(=C(/C(Cl)=C(/Cl)N(CC)CC)[N+](=O)[O-])n2nnc3ccccc32)cc1`, the GI50 is 21.6 µM (inactive) in assay [1]; > 100 µM (inactive) in assay [3]; 12 µM (inactive) in [5]; 31.8 µM (inactive) in [7]; 19.5 µM (inactive) in assay [8]; 26.7 µM (inactive) in assay [9]. In addition, the GI50 is 21.1 µM (inactive) in assay [18]; 17.5 µM (inactive) in assay [10]; 15.7 µM (inactive) in assay [11]; 23.2 µM (inactive) in assay [12]; 28.2 µM (inactive) in assay [13]; 56.1 µM (inactive) in assay [15]. The GI50 in [16] is 14.2 µM (inactive); in assay [19], 14.2 µM (inactive); in [17], 19.6 µM (inactive).

Consider `Nc1nc(-c2ccccc2/N=N/N2CCCC2)nc2ccccc12`, for which the GI50 in assay [1] was 2.56 µM (inactive); in assay [2], 4.93 µM (inactive); in [4], 8 µM (inactive); in assay [5] it was 2.13 µM (inactive); in assay [6], 1.75 µM (inactive); in [7], 3.08 µM (inactive). In addition, the GI50 in assay [8] is 2.56 µM (inactive); in assay [18] it was 2.99 µM (inactive); in assay [10], 3.7 µM (inactive); in [11], 6.7 µM (inactive); in [12], 2.39 µM (inactive); in [13], 13.2 µM (inactive). Further, the GI50 was 4.5 µM (inactive) in assay [14]; 9.1 µM (inactive) in assay [15]; 1.74 µM (inactive) in [16]; 2.4 µM (inactive) in assay [19]; 1.57 µM (inactive) in [17].

For `CC(C)CC(NC(=O)C(CCC(=O)OCc1ccccc1)NC(=O)OC(C)(C)C)C(=O)NC(COCc1ccccc1)C(=O)NC(Cc1ccccc1)C(=O)Oc1c(Cl)c(Cl)c(Cl)c(Cl)c1Cl` (stereo not drawn) (Boc-E(OBn)LS(Bn)F-X27; configuration not given here), the GI50 in assay [1] was 26.2 µM (inactive); in assay [2] it was 35.5 µM (inactive); in [4], 16.5 µM (inactive); in [5], 20.4 µM (inactive); in assay [6], > 100 µM (inactive); in [7], 28 µM (inactive). Moreover, the GI50 in [8] is 26.2 µM (inactive); in assay [9], 20 µM (inactive); in [18] it was 27.4 µM (inactive); in [10] it was > 100 µM (inactive); in [11], 35.3 µM (inactive); in [13] it was 34 µM (inactive). In addition, the GI50 in [14] was 18.4 µM (inactive); in assay [15] it was 28.5 µM (inactive); in assay [16], > 100 µM (inactive); in assay [17], 22.2 µM (inactive).
